According to patent US9186390B2, “Methods and uses of TIE2 binding and/or activating agents” (Sunnybrook Health Sciences Center, priority 2010, dated 2015):
Entries after “also recorded” stand apart in the source; their conditions may differ.

Legend:
[1] = tested on: AT derm mice (pTek-tTA:pTetOS-Tek); assay: Atopic dermatitis (AT derm) transgenic mouse model and wild-type littermates, 30-day Vasculotide treatment; format: in vivo, CD1 mice
Source text: Briefly, construction of the driver transgene, pTek-tTA, and the responder transgenes, pTetOS-Tek, pTetos-Ang1, and pTetos-Ang2 have been described previously. All transgenic lines were maintained and genotyped as previously described (Voskas et al. (2005) Am. J. Pathol. 166(3):843-855, Ward et al. (2004) Am. J. Pathol. 165(3):889-899, Bureau et al. (2006) Am. J. Physiol. Heart Circ. Physiol. 291(2):H948-965). Males were housed with a single female for 14 to 20 days and then separated into individual cages. CD1 mice (an outbred mouse line) were maintained in a barrier facility. All adult mice used in these studies were 2 to 6 months old.
Mouse skin tissue was fixed in 4% paraformaldehyde (Sigma, St. Louis, Mo.) for 16 hours at 4 degrees Celsius, and transferred to 70% ethanol. Tissues were subsequently paraffin embedded and sectioned at 4 μM on SuperFrost glass slides. Tissue slides were stained for hematoxylin and eosin using standard techniques. For immunohistochemistry, anti-E-Selectin (rat; Pharmingen, La Jolla, Calif.), anti-VCAM1 (rat; Pharmingen), anti-ICAM1 (Hamster; Pharmingen, La Jolla, Calif.), primary antibodies were detected using biotinylated secondary antibodies as described in the Vectastain Elite ABC kit (Vector Laboratories, Burlingame, Calif.). Slides were processed and counterstained with methyl green using standard techniques. Slides were analyzed and photos were processed using a Leica compound light microscope coupled to a Leica DFC300FX camera (Wetzlar, Germany). Skin tissue was taken (biopsy) at day 0, prior to initiation of treatment and at 30 days. Gross phenotypic examination was conducted and mice were photographed in a standard format using a Digital Canon Eos Rebel.
Blood was collected from all mice on day 0 (prior to treatment) and day 30 (after 30 days of treatment). On day 0, approximately 50 μl was collected via tail vein puncture into a lithium heparin micro tube. Day 30 blood was collected via cardiac puncture into a lithium heparin micro tube. Both blood samples were prepared for storage and subsequent analysis using Phosflow Lyse/Fix Buffer (BD Biosciences, Franklin Lakes, N.J.), according to manufacturers instructions. Cells were stained for IgE versus free FITC and characteristic populations of basophils and eosinophils were identified.
Normal and double transgenic (pTek-tTA:pTetOS-Tek) CD1 mice were injected intra peritoneally with either sterile PBS, pH 7.4 (vehicle) or Vasculotide (40 μg/kg) every three days for the period of 30 days. Mice were observed closely during this period for phenotypic resolution and/or any potential ill effects.
Plasma was collected in lithium/heparin microtubes from all mice following 30 days of treatment with Vasculotide or vehicle. Plasma was diluted 1:8 in sample diluent (BD Biosciences, Franklin Lakes, N.J.). A multiplex analysis of 12 different mouse cytokines was examined according to manufacturer's instructions. Analysis and cytokine/chemokine quantification was performed using the manufacturers FCAP software package (BD Biosciences, Franklin Lakes, N.J.).
Blood was collected from mice as previously described. Separated plasma was diluted 1:4 in calibrator diluent according to manufacturer's specifications (R&D Biosystems, Minneapolis, Minn. USA). All aspects of the assay were conducted according to manufacturer's directions. Quantification of plasma eotaxin concentrations was performed by linear regression analysis from assessment of defined amounts of eotaxin standard.

Eo/B progenitors = assay: Modulation of eosinophil/basophil progenitors (Eo/B-CFU); format: cell-based; conditions: preliminary data
Description: Thus, Eo/B from mice and healthy donors are isolated. Eosinophils from the periphery or bone marrow are enriched by magnetic bead sorting using anti CD125 (IL-5Ra) conjugated to magnetic particles. These cells preparations are stimulated with either recombinant Ang1 or Vasculotide and different cellular parameters are measured, including cellular growth, apoptosis, migration and Tie2-specific cellular signaling.
To examine the effect of Vasculotide on Eo/B progenitors, bone marrow colony assays are performed. Human bone marrow preparations are purchased from Stem Cell Technologies (Vancouver, BC) and murine bone marrow are obtained by flushing femurs of normal mice. Non-adherent mononuclear cells are cultured in MethoCult supplemented with IL-5 to optimize for eosinophil/basophil colony formation (Eo/B-CFU). […] The appearance of Eo/B-CFU is measured.
Eo/Bs and their progenitors are harvested from Vasculotide treated asthmatic animals from the periphery or bone marrow. In order to establish an Eo/B cellular profile treated and non-treated animals are harvested on week 1, 2, 4 and 6 and the number of Eo/Bs in the periphery, bone marrow and progenitors is determined. The number of peripheral and bone marrow eosinophils is determined by flow cytometry analysis using Ly6G, CD11b, IgE and free FITC markers. Eo/B progenitors in the bone marrow are measured by Eo/B-CFU assay.

[2] = AT derm and wild-type mice, 30 days treatment
[3] = AT derm mice, skin and underlying muscle, 40 μg/kg every 3 days for 30 days
[4] = wild-type (or single transgenic) mice, 30 days, p=0.0027

## Vasculotide: Modified T7 peptide (CHHHRHSF, SEQ ID NO:2) conjugated to 10 kDa tetrameric polyethylene glycol-maleimide; Tie2 binding peptide mimetic
[1]; 40 μg/kg every 3 days for 30 days, vs PBS
  body weight change during 30-day treatment: no statistically significant alteration; also recorded: no statistically detectable alteration
[1]; AT Derm mice vs PBS treated AT Derm mice, p=0.0208
  plasma eotaxin levels (ELISA): statistically significant decrease
[1]; [2]
  basophil numbers in peripheral blood (FACS): marked reduction; also recorded: Decreased numbers
  eosinophil numbers in peripheral blood (FACS): marked reduction; also recorded: Decreased numbers
[1]; AT derm and wild-type mice, treated or untreated
  number of granulocytes in the bone marrow: unchanged
[1]; AT derm mice (moderate or severe), 40 μg/kg every 3 days for 30 days
  gross phenotype: erythema, micro-haemorrhages of the ears, scaly plaque formation on the tail: complete or almost complete resolution; also recorded: Gross phenotypic improvement
[1]; AT derm mice vs PBS-treated AT derm mice, 30 days, p=0.0492
  plasma IL-1β (cytometric bead array): reduction
[1]; AT derm mice, 40 μg/kg every three days
  erythema after the third dose (9 days): reduction in erythema
[1]; AT derm mice, 30 days treatment vs PBS
  epidermal hyperplasia and infiltration of leukocytes (H&E staining of skin): dramatic reduction; also recorded: marked reduction
[1]; [3]
  E-selectin expression (immunohistochemistry): very low or absent levels of positive staining; also recorded: dramatic reduction
  ICAM1 expression (immunohistochemistry): very low or absent levels of positive staining; also recorded: dramatic reduction
  VCAM1 expression (immunohistochemistry): very low or absent levels of positive staining; also recorded: dramatic reduction
[1]; control and AT-Derm mice, 30 days treatment
  neutrophils in peripheral blood (FACS): No effects
[1]; [4]
  plasma IL-5 (cytometric bead array): statistically significant decrease
  plasma IL-13 (cytometric bead array): statistically significant decrease
[1]; wild-type (or single transgenic) mice, 30 days, p=0.003
  plasma MIP1b (cytometric bead array): statistically significant decrease
[1]; wild-type (or single transgenic) mice, 30 days, p=0.0079
  plasma IL-9 (cytometric bead array): statistically significant decrease
[1]; wild-type (or single transgenic) mice, 30 days, p=0.0116
  plasma MCP1 (cytometric bead array): statistically significant decrease
[1]; wild-type (or single transgenic) mice, 30 days, p=0.0117
  plasma MIG (cytometric bead array): statistically significant decrease
[1]; wild-type (or single transgenic) mice, 30 days, p=0.0309
  plasma TNF-α (cytometric bead array): statistically significant decrease
[1]; wild-type (or single transgenic) mice, 30 days, p=0.0473
  plasma MIP1a (cytometric bead array): statistically significant decrease
[1]; wild-type (or single transgenic) mice, 30 days, p=0.0492
  plasma IL-17 (cytometric bead array): statistically significant decrease
[1]; wild-type (or single transgenic) mice, 30 days, p=0.0494
  plasma IL-12/IL-23 p40 (cytometric bead array): statistically significant decrease
[1]; wild-type or single transgenic mice, 40 μg/kg every three days
  overt effects / appearance of single transgenic or wild-type littermates: no overt effects; also recorded: indistinguishable from PBS-treated
Eo/B progenitors
  effect on Eo/B progenitors: impacts the Eo/B progenitors directly
